In patent US9796677B2, “Amide compound and pharmaceutical comprising same” (JAPAN SCIENCE AND TECHNOLOGY AGENCY, priority 2013, dated 2017):

Columns and labels:
O-acylisopeptide of Aβ = target: T1, O-acylisopeptide of Aβ (Homo sapiens, UniProt P05067); assay: Aβ aggregation inhibition test (thioflavine T fluorescence); assay type: biochemical; details: final sample concentration 30 μM, Aβ O-acylisopeptide 10 μM, pH 7.4, 37° C., 1% DMSO; DMSO control defined as 100
T1 construct: containing O-acylisopeptide of Aβ (10 μM)
T1 sequence (P05067 672-713 limits assumed): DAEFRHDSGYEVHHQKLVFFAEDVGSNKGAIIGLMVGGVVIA
Procedure: A test sample solution (solution in DMSO) was added into a 0.1 M phosphate buffer solution (pH 7.4, 50 μL) containing O-acylisopeptide of Aβ (10 μM) (final sample concentration: 30 μM, 1% DMSO), and the mixture was incubated at 37° C. for an arbitrary time. Then, an aliquot (10 μL) of the reaction solution was added to a mixed solution of a thioflavine T solution (50 μM thioflavine T, 10 μL) and a 50 mM glycine-NaOH buffer (pH 8.5, 396 μL) and immediately mixed therewith, and the fluorescence intensity of thioflavine T was measured. In the fluorescence intensity measurement, 440 nm was used as an excitation wavelength, and 480 nm was used as a fluorescent wavelength.

Aβ = details: background statement on the known pentapeptide; cited from earlier work
Aβ, sequence (P05067 672-711 limits assumed): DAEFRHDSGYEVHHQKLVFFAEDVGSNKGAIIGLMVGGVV

Row | Molecule | Aggregation inhibition ratio (lower value means stronger inhibitory activity) (O-acylisopeptide of Aβ) | Aβ aggregation inhibitory activity (Aβ)
1 | CC(C)CCNC(=O)c1cc(Cc2ccccc2)cc(Oc2ccccc2)n1 [Compound 1, 4-Benzyl-6-phenoxy-N-isoamylpicolinamide] | 61 | 
2 | CC(C)CCCNC(=O)c1cc(Cc2ccccc2)cc(Oc2ccccc2)n1 [Compound 3, 4-Benzyl-6-phenoxy-N-(4-methylpentyl)picolinamide] | 58 | 
3 | CC(C)CCNC(=O)c1cc(Cc2ccccc2)cc(OC2CCCCC2)n1 [Compound 4, 4-Benzyl-6-cyclohexyloxy-N-isoamylpicolinamide] | 60 | 
4 | O=C(NC1C2CC3CC(C2)CC1C3)c1nc(Cc2ccccc2)cc(Oc2ccccc2)n1 (centres unmarked) [Compound 12, N-(Adamantan-2-yl)-4-benzyl-6-phenoxypyrimidine-2-carboxamide] | 40 | 
5 | CC(C)CCNC(=O)c1cc(Cc2ccccc2)cc(OCc2ccccc2)n1 [Compound 5, 6-Benzyloxy-4-benzyl-N-isoamylpicolinamide] | 75 | 
6 | CC(C)CCOc1cc(Cc2ccccc2)cc(C(=O)NCCc2ccccc2)n1 [Compound 6, 4-Benzyl-6-(3-methylbutoxy)-N-phenylethylpicolinamide] | 60 | 
7 | L-[Lys-Leu-Val-Phe-Phe] (KLVFF) [(known), used as control] |  | very weak
8 | CC(C)CCNC(=O)c1cc(Cc2ccc3ccccc3c2)cc(Oc2ccccc2)n1 [Compound 2, 4-(Naphthalen-2-yl)methyl-6-phenoxy-N-isoamylpicolinamide] | 52 | 
